The target in one data set is T1, cytidine deaminase (CD) (Homo sapiens, UniProt P32320).
T1 construct: Crude extracts of PC-3 cells in culture were prepared as described above; endogenous in cells; host or cells: PC-3 cells (crude extract supernatant)
As to the kind of experiment: Competition assay for substrates of cytidine deaminase, crude extracts of PC-3 cells. Format: biochemical. The following applies: for substrate for cytidine deaminase (in words): competition studies, human tumor cell extracts. The protocol:
The crude enzyme extract (the supernatant of a 10 minute 14,000×g centrifugation) was then added. When cytidine was used as substrate, assays were conducted with benzacyclouridine to inhibit uridine phosphorylases. […] After 0, 15, and 30 minutes, the reaction was stopped and denatured protein removed as above for dC Kinase. […] Aliquots were then spotted on PE cellulose TLC sheets and the reactants separated with a solvent system composed of isopropanol:HCl:H2O (170:41:39). […] The nucleosides were visualized under U.V. light and the spots cut out and counted. […] Enzyme activity was expressed as nmole formed in 30 min/mg/protein.
Competition assays to determine Substrate Specificity: Crude extracts of PC-3 cells in culture were prepared as described above. Two concentrations of crude extract were utilized for the studies as determined from the analysis of protein.
The assays were run for 0, 15, and 30 minutes.

Data set [1] has as its system PC-3 cells. Nature of the data set: Radiosensitization of cells in culture (Cobalt 60, clonogenic survival). Format: cell-based, human. The following applies: for effect of thymidine on radiosensitization (in words) / effect of tetrahydrouridine (H4U) on radiosensitization (in words): cells in culture. The protocol: (§1) Toxicity and Radiation Studies: The methods using clonogenic assays described by Perez and Greer (Int. J. Rad. Oncology: Biology, Physics 12, 1523-1527, 1986—incorporated herein by reference in its entirety) were followed.
(§2) Irradiation of Cells in Culture: 2×10^5 cells were plated in 25 cm^2 flasks and grown for 18 hr at 37° C. in a humidified 5% CO2 atmosphere. The medium was then removed and replaced with medium containing the appropriate drug concentrations and incubated for 72 hrs then removed and the cell monolayers were rinsed twice with PBS. The flasks were then filled with 50 ml of radiation medium (3 parts RPMI 1640 and 7 parts PBS plus antibiotics and glutamine). The cells were then irradiated using a Cobalt 60 irradiator. The cell monolayers were placed 35 cm away from the source and irradiated for appropriate times according to the dose rate. The dose rate was calculated, at this distance, using ionization chambers. Attenuation factors due to the polystyrene flask (0.9923) and the medium (H2O=0.8715) were considered in calculating the exposure period.
(§3) After irradiation the cell monolayers were washed again, replenished with growth media, and incubated for 1½ hours. The cell monolayers were then trypsinized and the cells serially diluted, appropriate dilutions were then plated in 60 mm dishes and incubated for 7-9 days at 37° C. and CO2. At the end of this period the cells were stained with crystal violet and the colony forming ability determined by considering 25 or more normal cells as a viable colony. The viabilities were determined and the appropriate survival curves derived. All conditions were done in duplicate using two flasks treated under identical conditions.

For data set [2], the target named is deoxycytidine kinase (dCK) (Homo sapiens, UniProt P27707). As to the kind of experiment: Competition assay for substrates of deoxycytidine kinase, crude extracts of PC-3 cells. The following applies: for substrate for deoxycytidine kinase (in words): competition studies, human tumor cell extracts; for inhibition at 250 µM: read-out: % Inhibition (dCK).
Sequence of deoxycytidine kinase (dCK) (P27707 whole entry): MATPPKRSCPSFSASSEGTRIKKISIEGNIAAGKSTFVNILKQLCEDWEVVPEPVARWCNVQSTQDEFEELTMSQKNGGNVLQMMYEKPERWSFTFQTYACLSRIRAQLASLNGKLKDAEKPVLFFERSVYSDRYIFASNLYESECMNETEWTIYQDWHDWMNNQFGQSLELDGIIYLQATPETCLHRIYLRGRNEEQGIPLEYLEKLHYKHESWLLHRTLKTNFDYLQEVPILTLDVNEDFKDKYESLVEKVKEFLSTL
Another data set deals with T24 cells. Nature of the data set: Radiosensitization of cells in culture (Cobalt 60, clonogenic survival). Format: cell-based, human. The protocol: as §1, §2, §3
In another data set the test system is uridine/cytidine kinase. Nature of the data set: Competition assay for substrates of uridine/cytidine kinase, crude extracts of T24 cells. Format: biochemical, human. The protocol:
2 mM dithiothreitol (DTT) and 0.5 mM phenylmethylsulfanyl fluoride were added just before extraction. The tissue sample was homogenized in a Dounce glass homogenizer and then sonicated for 3 five-second pulses in a Branson Sonifier with a micro-tip at 25 KHz to disrupt the cells. During homogenization and sonication the extract was kept cold throughout the procedures. The tissue extract was then centrifuged at 14,000×g at 4° C. for 15 min., and the supernatant (the crude enzyme extract) was removed. The supernatant was sheared 20 times on ice utilizing a 1 cc syringe with a 27 G½ needle to reduce viscosity. […] 2 mM DTT and 340 μM H4U were added just before the assay. Finally, to the reaction mixture, 5 μl 200 mM creatine phosphate and creatine phosphokinase (0.5 unit/μl) was added to 150 μl of the section mixture. […] H2O bath for 1 minute before 20 μl of the crude enzyme extract was added to initiate the reaction. […] At 0, 30 and 60 minutes the reaction mixture, divided in separate tubes, was heated in a boiling water bath for 2 minutes to terminate the reaction. Denatured protein was then removed by centrifugation of the sample for 2 minutes at 14,000×g. The amount of nucleotide formed was determined by spotting 20 μl aliquots of the reaction mixture onto DE-81 2.2 cm Whatman filter discs. After air drying, the unphosphorylated substrate nucleoside was removed by washing twice for 10 min. in 20 mM ammonium formate and twice for 5 min. in deionized H2O with gentle stirring. A control, lacking the crude enzyme extract was included with each determination. The washed papers were dried under a heat lamp and then placed into individual scintillation vials, eluted for 30 min. in 1 ml of 0.1M HCl-0.1M KCL and then vortexed in 5 ml of scintillation fluid and counted. Enzyme activity was expressed as pmoles/min/mg protein.
When uridine was utilized as substrate, benzacyclouridine was added to prevent the catabolism of the substrate by uridine phosphorylase and tetrahydrouridine was omitted.

Data set [3] has as its system PC-3 cells. Nature of the data set: Cytotoxicity (clonogenic) assay, 72 h drug exposure. Format: cell-based, human. The protocol:
as §1
Cytotoxicity Assays: 5×10^5 cells were plated in 60 mm tissue culture dishes in 5 mls of the optimal growth media for the particular cell line in an humidified 95% air-5% CO2 atmosphere. The plates were incubated for 18-20 hours to allow for attachment and log-phase growth to begin. At the end of this period the growth medium was aspirated and replaced with […]. Four times (4×) concentrated solutions were prepared and then 1 ml was added to the plates; and growth media were then added to a total volume of […]. The plates were then incubated for 72 hours and the cells harvested by trypsinization. The cells were then serially diluted in growth medium replated into 60 mm dishes and incubated for 6 to 9 days depending on the cell line. After this incubation period, the media was aspirated and the colonies were washed twice with a PBS solution. The colonies were then stained with a 0.2% crystal violet-20% ethanol solution for 5 min. the stain was removed, the colonies were washed and air dried. A viable colony was one consisting of 25 or more normal appearing cells and was considered to have arisen from a single cell. The colonies were counted under a dissecting microscope. Two to three dilutions for every condition were plated. Dishes containing 30-300 colonies were used in the calculation and all conditions were done in duplicate.

Another data set deals with T2, dCMP deaminase (Mus musculus, UniProt Q8K2D6).
T2 construct: deaminase activity of tumor, serum and other tissues assayed 30 min after H4U; from tissue; host or cells: tumor (Lewis lung carcinoma), serum and other tissues of BD2F1 mice
T2 sequence (Q8K2D6 1-178): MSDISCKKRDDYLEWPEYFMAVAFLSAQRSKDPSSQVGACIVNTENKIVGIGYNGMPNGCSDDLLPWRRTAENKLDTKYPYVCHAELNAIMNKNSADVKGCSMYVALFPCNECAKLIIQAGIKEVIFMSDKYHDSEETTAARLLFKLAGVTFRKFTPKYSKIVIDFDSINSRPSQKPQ
Nature of the data set: Inhibition of dCMP deaminase after H4U in mice bearing Lewis lung carcinoma. Format: in vivo, BD2F1 mice. Conditions: 30 min. The protocol:
dCMP Deaminase Activity: The crude enzyme extract was prepared as described in A. The reaction was carried out in 60 mM Tris HCl, pH 8.0, and 50 μm dCTP, 2.5 mM MgCl2, 30 mM NaF, and 80% H2O to which dCMP (^3H labeled) was added to a final concentration of 2 mM; 20 μl of enzyme extract was added to initiate the reaction giving a total volume of […]. […] A control lacking enzyme was included with each determination. The reaction was terminated as described above in at 0, 30 and 45 minutes and denatured protein was removed by centrifugation as described above. To 10 μl of the supernatant, 6 μl of a 0.03M solution of the carrier nucleotides, dCMP and dUMP were added so that the reactants can be visualized under a UV lamp. Chromatographic isolation of the products was carried out in 2 different solvent systems: A) Baker DEAE Cellulose TLC sheets in 0.01N HCl for 35 min. […] Each appropriate area of the thin layer sheets (where dCMP and dUMP were separated), were cut into small pieces and placed in separate vials and extracted with 1N HCl (1 ml) for 30 minutes. Scintillation cocktail was added (5 ml) to the vials which were vortexed prior to counting. The specific activity was expressed as nmoles/min/mg protein.

Another data set relates to Lewis lung carcinoma. As to the kind of experiment: Mean day of death (T/C), Lewis lung carcinoma in mice. Format: in vivo, BD2F1 mice. The protocol: ; The efficacy of the drug, F3methyldC followed the pattern of Selectivity. The mean day of death (Tumor/Control) was 1.3, 1.6, 1.8 and 1.4 for 10, 25, 50 and 75 mg/kg H4U, respectively. […].

Structures are written as SMILES. Like-named read-outs stand apart in the source and are kept apart here. Marks after values point to notes of the source that are not given here.

T1 sequence (P32320 whole entry): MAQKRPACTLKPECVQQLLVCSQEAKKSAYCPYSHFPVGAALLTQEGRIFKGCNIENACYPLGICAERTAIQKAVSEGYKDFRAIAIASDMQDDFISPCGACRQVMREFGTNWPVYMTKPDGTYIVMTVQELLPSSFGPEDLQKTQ

The inhibition is the drop in the measured response relative to a control, in per cent. Regarding `Nc1nc(=O)n([C@H]2C[C@H](O)[C@@H](CO)O2)cc1Br` [5-BrdC, 5-Bromo-2′-deoxycytidine], on cytidine deaminase (CD), the “substrate for cytidine deaminase (in words)” value is given as “good substrates”. The inhibition on cytidine deaminase (CD) (substrate 3H-Cytidine 25 μM, ratio 10, PC-3 extracts) was found to be 50%. Further, the “effect of thymidine on radiosensitization (in words)” value in the data set on PC-3 cells [1] is on record as “antagonized by thymidine”. Also, in data set [2], the “substrate for deoxycytidine kinase (in words)” value is reported as “very poor substrates” and the inhibition at 250 µM worked out at 0%.
In the case of `O=c1[nH]c(=O)n([C@@H]2O[C@H](CO)[C@@H](O)[C@H]2O)cc1Cl` [5-Chlorouridine], the figures for the “radiosensitization of T24 cells (in words)” value in the data set on T24 cells and in the data set on T24 cells (listed as Chlorouridine) were “effective radiosensitizer” and “compared very favorably with the other established Radiosensitizers”, respectively. The “radiosensitization of PC-3 cells (in words)” value in the data set with PC-3 cells [1] (PC-3 cells) is “effective radiosensitizer”. Further, the “substrate for U/C kinase of T24 cells (in words)” value in the data set on uridine/cytidine kinase is given as “moderate substrates”. The “% Inhibitation (U/C kinase)” value in the data set on uridine/cytidine kinase (competitor 100 μM, substrate 3H-Cytidine 8.3 μM) is recorded as 8%; with uridine/cytidine kinase (competitor 100 μM, substrate 3H-Uridine 16.7 μM) it was 11%; in the data set on uridine/cytidine kinase (competitor 250 μM, substrate 3H-Cytidine 8.3 μM), 21%; in the data set with uridine/cytidine kinase (competitor 250 μM, substrate 3H-Uridine 16.7 μM) it was 22%; with uridine/cytidine kinase (competitor 500 μM, substrate 3H-Cytidine 8.3 μM) it was 32%; in the data set on uridine/cytidine kinase (competitor 500 μM, substrate 3H-Uridine 16.7 μM) it was 24%. Further, the “% Inhibitation (U/C kinase)” value in the data set with uridine/cytidine kinase (competitor 750 μM, substrate 3H-Cytidine 8.3 μM) was determined as 39%; with uridine/cytidine kinase (competitor 750 μM, substrate 3H-Uridine 16.7 μM), 32%.
In the case of `Nc1nc(=O)n([C@H]2C[C@H](O)[C@@H](CO)O2)cc1I` [5-IdC, 5-Iodo-2′-deoxycytidine], on cytidine deaminase (CD), the “substrate for cytidine deaminase (in words)” value is “good substrates”. In addition, the inhibition at 250 µM is 60% on cytidine deaminase (CD) (competitor 250 μM, substrate 3H-Deoxycytidine 25 μM, ratio 10, PC-3 extracts) and 0% in data set [2]. Further, the “effect of tetrahydrouridine (H4U) on cytotoxicity / viability (in words)” value is “antagonized by Tetrahydrouridine” in the data set with PC-3 cells [3] and “reversal by H4U” with PC-3 cells [3] (human, 72 h). Further, the “effect of thymidine on cytotoxicity (in words)” value with PC-3 cells [3] was “antagonized by thymidine”. In addition, the “% S” value in the data set with PC-3 cells [3] (nucleoside 5 μM, H4U 0 μM) amounted to 15%; in the data set with PC-3 cells [3] (nucleoside 5 μM, H4U 5 μM), 100%; in the data set on PC-3 cells [3] (nucleoside 5 μM, H4U 100 μM) it was 97%; in the data set on PC-3 cells [3] (nucleoside 5 μM, H4U 1500 μM) it was 100%; in the data set with PC-3 cells [3] (nucleoside 10 μM, H4U 5 μM), 53%; in the data set on PC-3 cells [3] (nucleoside 10 μM, H4U 100 μM) it was 73%. In addition, the “% S” value with PC-3 cells [3] (nucleoside 10 μM, H4U 1500 μM) is reported as 89%; in the data set with PC-3 cells [3] (nucleoside 20 μM, H4U 5 μM), 30%; in the data set on PC-3 cells [3] (nucleoside 20 μM, H4U 100 μM), 65%; in the data set with PC-3 cells [3] (nucleoside 20 μM, H4U 1500 μM) it was 61%. In the data set with PC-3 cells [1], the “effect of thymidine on radiosensitization (in words)” value is recorded as “antagonized by thymidine”. The “effect of tetrahydrouridine (H4U) on radiosensitization (in words)” value with PC-3 cells [1] (listed as 5-Iododeoxycytidine) was “reversal by H4U”; in the data set with PC-3 cells [1] (listed as IdC), “greater radiosensitization than IdC alone”. In addition, the “substrate for deoxycytidine kinase (in words)” value in data set [2] is listed as “very poor substrates”.
With `O=C1NC(O)CCN1[C@@H]1O[C@H](CO)[C@@H](O)[C@H]1O` (stereo partly drawn) [Tetrahydrouridine], the “% of inhibition of dCMP deaminase of tumor” value on dCMP deaminase (H4U 10 mg/kg, footnote: less than 5% enzyme inhibition) is listed as 0^d %; at dCMP deaminase (H4U 25 mg/kg), 0%; at dCMP deaminase (H4U 50 mg/kg) it was 0%; on dCMP deaminase (H4U 75 mg/kg), 0%. Moreover, the “% S” value in the data set with PC-3 cells [3] (no nucleoside, H4U 100 μM alone) came to 100%. Also, the “MDD T/C (mean day of death)” value is 1.25 in the data set with Lewis lung carcinoma (H4U 10 mg/kg with F3methyldC); 1.63 ± 0.07^e in the data set with Lewis lung carcinoma (H4U 25 mg/kg with F3methyldC, mean ± SE); 1.78 ± 0.06 in the data set with Lewis lung carcinoma (H4U 50 mg/kg with F3methyldC, mean ± SE); 1.44 with Lewis lung carcinoma (H4U 75 mg/kg with F3methyldC). The “% Inhibitation (U/C kinase)” value with uridine/cytidine kinase (competitor 1500 μM, substrate 3H-Cytidine 8.3 μM) worked out at 1.5%; with uridine/cytidine kinase (competitor 1500 μM, substrate 3H-Uridine 16.7 μM), 1.7%.
